Measured values taken from patent US20160068571A1, “THERAPEUTIC AGENT FOR CARDIAC TAMPONADE” (Research Institute for Protein Science Co., priority 2013, published 2016).
Where no end group is shown, it is not given here.

Tests used:
Type in all cases: in vivo, Vietnamese minipigs
[1] = system: acute porcine model of experimental cardiac tamponade; assay: Macro-hemodynamic measurements in acute porcine model of experimental cardiac tamponade; settings: for central venous pressure: FIG. 2A; for global end-diastolic volume index: FIG. 2B; for superior mesenteric artery blood flow: FIG. 3A; for heart rate: FIG. 2C
Method: Inbred Vietnamese minipigs of both sexes (n=19, weighing 24±3 kg) were fasted for twelve (12) hours preoperatively, but received water ad libitum. Anesthesia was induced with a mixture of ketamine (20 mg/kg) and xylazine (2 mg/kg) im and maintained with a continuous infusion of propofol (50 μL/min/kg iv; 6 mg/kg/hr). After endotracheal intubation, the animals were mechanically ventilated with the tidal volume set at 9±2 mL/kg, and the respiratory rate was adjusted to maintain the end-tidal pressure of CO2 and PaCO2 in the range of 35 to 45 mmHg. Positive end-expiratory pressure was not applied during the period of cardiac tamponade.
The animals were placed in a supine position on an electric heating pad for maintenance of body temperature between 36 and 37° C., and received an infusion of Ringer's lactate at a rate of 10 mL/kg/h during the experiment. The right femoral artery and jugular vein were cannulated for the measurement of mean arterial pressure (“MAP”) and cardiac output (“CO”) by thermodilution (PICCO catheters, PULSION Medical Systems, Germany), and for fluid or drug administration, respectively. […] An ultrasonic flow probe (Transonic Systems Inc., Ithaca, N.Y., U.S.A.) was placed around the exposed SMA to measure the mesenteric blood flow. In all protocols, the animals were monitored continuously, arterial blood gases were regularly checked (Cobas b121, Roche, Austria), and a period of 30 minutes was allowed for recovery from surgery.
The animals were randomly allocated to either of three experimental groups. Group 1 (n=6) served as the sham^-operated group to which the same time-frame and sampling conditions as in the groups of 2 (n=7) and 3 (n=6) were applied, but without causing cardiac tamponade. Left lateral thoracotomy was performed in all groups. In the groups which developed cardiac tamponade, namely, in the group not treated with AcPepA (herein also referred to as “non-treated group”) and the group treated with AcPepA (herein also referred to as “treated group”), a cannula was fixed into the pericardial cavity. A pericardial tamponade was induced for 60 minutes by the intrapericardial administration of colloid solution, while the mean artery pressure was kept in the interval of 40 to 45 mmHg. After elapse of this period, the fluid was removed from the pericardial cavity and the animals were monitored for 180 minutes post-tamponade. Group 3 (the treated group) was treated with AcPepA (a single administration of 4 mg/kg in 5 mL saline iv into the jugular vein in a 5-minute infusion) after 45 minutes of cardiac tamponade. The beginning of tamponade is denoting 0 minute. Vehicle (saline) administration was applied in the groups of 1 and 2 by the same protocol.
Central venous pressure (“CVP”) and blood flow signals were continuously monitored and automatically registered with a computerized data-acquisition system (SPELL Haemosys; Experimetria Ltd., Budapest, Hungary). Mean arterial pressure, cardiac output and heart rate were measured with the PICCO Plus monitoring system (PULSION Medical Systems, Germany) and the global end-diastolic volume index (“GEDI”) was calculated with the PICCO system. Incidentally, central venous pressure was measured in each animal to exclude the influence of these factors, in parallel with the standard ventilation and fluid replacement protocols

histamine = assay: Plasma histamine in porcine cardiac tamponade model; settings: 15 minutes of the post-tamponade phase; AcPepA 4 mg/kg iv; FIG. 4A
Method: (§1) The animals were randomly allocated to either of three experimental groups. Group 1 (n=6) served as the sham^-operated group to which the same time-frame and sampling conditions as in the groups of 2 (n=7) and 3 (n=6) were applied, but without causing cardiac tamponade. Left lateral thoracotomy was performed in all groups. In the groups which developed cardiac tamponade, namely, in the group not treated with AcPepA (herein also referred to as “non-treated group”) and the group treated with AcPepA (herein also referred to as “treated group”), a cannula was fixed into the pericardial cavity. […] After elapse of this period, the fluid was removed from the pericardial cavity and the animals were monitored for 180 minutes post-tamponade. […]
(§2) Plasma concentrations of protein HMGB-1 were determined with a commercially available protein HMGB-1 ELISA kit (Shino-Test Corporation, Kanagawa, Japan). Plasma levels of big-endothelin, a 38 amino acid precursor protein of endothelin-1 (ET-1), were determined with a commercially available kit (Biochemica Hungaria Kft., Budapest, Hungary). Plasma histamine concentrations were determined by commercially available enzyme-linked immunoassay (Quantikine ultrasensitive EIA kit for histamine; Biomedica Hungaria Kft, Budapest, Hungary).

[2] = system: mucosal microcirculation of the small intestine; assay: Intravital videomicroscopy of the intestinal microcirculation in porcine cardiac tamponade model; settings: end of the post-tamponade phase; AcPepA 4 mg/kg iv; FIG. 3B
Method: as §1
An intravital orthogonal polarization spectral imaging technique (Cytoscan A/R, Cytometrics, Philadelphia, Pa., USA) was used for noninvasive visualization of the mucosal microcirculation of the small intestine. […] A 10× objective lens was placed onto the serosal surface of the […], and microscopic images were recorded with an S-VHS video recorder 1 (Panasonic AG-TL 700, Matsushita Electric Ind. Co. Ltd, Osaka, Japan). Quantitative assessment of the microcirculatory parameters was performed off-line by frame-to-frame analysis of the videotaped images. […]

myeloperoxidase = assay: Small intestinal myeloperoxidase activity in porcine cardiac tamponade model; settings: end of the experiment; AcPepA 4 mg/kg iv; FIG. 5A
Method: as §1
The activity of myeloperoxidase, a marker of activation of polymorphonuclear leukocyte, was measured by using ileal biopsy samples according to the method of Kuebler et al. (for review see Kuebler W M, Abels C, Schuerer L, et al: Measurement of neutrophil content in brain and lung tissue by a modified myeloperoxidase assay. Int J Microcirc Clin Exp 1996; 16:89-97). […] Levels of myeloperoxidase were calculated via a calibration curve prepared with an myeloperoxidase standard (Sigma-Aldrich GmbH, Germany). […] Myeloperoxidase activities of such samples were measured as described above, and such data were referred to the protein content.

big-endothelin = assay: Plasma big-endothelin in porcine cardiac tamponade model; settings: after cardiac tamponade; AcPepA 4 mg/kg iv; FIG. 4B
Method: as §1, §2

[3] = system: whole blood superoxide production; assay: Whole blood superoxide production in porcine cardiac tamponade model; settings: early stage of the post-tamponade phase; AcPepA 4 mg/kg iv; FIG. 5B
Method: The animals were randomly allocated to either of three experimental groups. Group 1 (n=6) served as the sham^-operated group to which the same time-frame and sampling conditions as in the groups of 2 (n=7) and 3 (n=6) were applied, but without causing cardiac tamponade. Left lateral thoracotomy was performed in all groups. In the groups which developed cardiac tamponade, namely, in the group not treated with AcPepA (herein also referred to as “non-treated group”) and the group treated with AcPepA (herein also referred to as “treated group”), a cannula was fixed into the pericardial cavity. A pericardial tamponade was induced for 60 minutes by the intrapericardial administration of colloid solution, while the mean artery pressure was kept in the interval of 40 to 45 mmHg. After elapse of this period, the fluid was removed from the pericardial cavity and the animals were monitored for 180 minutes post-tamponade. […]
During the measurements, 10 μL whole blood was added to 1 mL Hank's solution (PAA Cell Culture Company) and the mixture was kept at 37° C. until assay. The chemiluminometric response was measured with a Lumat LB9507 luminometer (Berthold, Germany) during a 30 minute period after addition of 100 μL of lucigenin.

protein HMGB-1 = assay: Plasma HMGB-1 in porcine cardiac tamponade model; settings: after cardiac tamponade; AcPepA 4 mg/kg iv; FIG. 4C
Method: as §1, §2

[4] = after relief of cardiac tamponade, AcPepA 4 mg/kg iv
[5] = during the period of cardiac tamponade, treated group vs sham-operated group

In the case of “AcPepA: 17 amino acid peptide (Ala Ser Gly Ala Pro Ala Pro Gly Pro Ala Gly Pro Leu Arg Pro Met Phe), N-terminal alanine acetylated; C5A antagonist (Ac-ASGAPAPGPAGPLRPMF)”, the central venous pressure [1, 4] is reported as “significant high values as compared with in the non-treated group and also showed the same values as in the sham-operated group”, the “global end-diastolic volume index” value [1, 4] is reported as “significant high values as compared with in the non-treated group and also showed the same values as in the sham-operated group” and the mean arterial pressure ([1]; after relief of tamponade, AcPepA 4 mg/kg iv single dose after 45 minutes of tamponade, FIG. 1A) is reported as “significantly high values as compared with in the non-treated group and also showed the same values as in the sham-operated group”. For the same substance, the cardiac output ([1]; after relief of tamponade, AcPepA 4 mg/kg iv, FIG. 1B) was “not affected”, the “superior mesenteric artery blood flow” value ([1]; after relief of tamponade, AcPepA 4 mg/kg iv) was “increased significantly after relief of tamponade as compared with in the sham-operated group” and the “decline in cardiac output” value ([1]; during 60 minutes of cardiac tamponade, treated group (AcPepA 4 mg/kg iv after 45 minutes of tamponade), vs sham-operated group, FIG. 1B) was 65%. For the same substance, the heart rate ([1]; during cardiac tamponade, treated group vs sham-operated group) was “significant increase in heart rate”, the central venous pressure [1, 5] was “significant increase of central venous pressure” and the “global end-diastolic volume index” value [1, 5] was “significant decrease of the global end-diastolic volume index”. For the same substance, the “superior mesenteric artery blood flow” value [1, 5] was “significant decrease in the superior mesenteric artery blood flow”, the heart rate ([1]; post-tamponade period, AcPepA 4 mg/kg iv) was “significant decrease in the post-tamponade period as compared with in the non-treated group” and the “histamine levels in blood plasma” value (histamine) was “decreased significantly in the treated group as compared with in the non-treated group and showed the same values as in the sham-operated group”. The “average red blood cell verocity” value [2] was “increased significantly from the baseline level and also as compared with in the non-treated group”, the “myeloperoxidase activity in small intestine tissue samples (polymorphonuclear leukocyte accumulation)” value (myeloperoxidase) was “significant low values in the treated group as compared with in the non-treated group and also showed the same values as in the sham-operated group” and the plasma big-endothelin levels (big-endothelin) was “low values as compared with in the non-treated group and also showed the same values as in the sham-operated group”. For the same substance, the “whole blood superoxide production” value [3] was “low as compared with in the non-treated group and also showed the same values as in the sham-operated group” and the “plasma levels of protein HMGB-1” value (protein HMGB-1) was “significant low values as compared with in the non-treated group and also showed the same values as in the sham-operated group”.
